From patent US11098061B2 (Celgene CAR LLC, priority 2013, dated 2021) come the findings set out here.

Usually IC50 stands for the concentration that inhibits the measured activity by half.

The target in test [1] is T1, MK2 (Homo sapiens (Human), UniProt P49137). The test can be described thus: MK2 cellular assay (Hsp27 phosphorylation in Thp-1 cells). The format is cell-based. The conditions noted are these: differentiated Thp-1 cells, compound 1 hour, 50 ng/ml LPS 15 minutes, phosphorylation of Hsp27; read-out: MK2EC50. The protocol:
Compounds were assayed in Thp-1 human acute monocytic leukemia cells to measure inhibition of MK2 activity. Thp-1 were grown in suspension in T225 flasks. Two days prior to assay, Thp-1 cells were spun down, counted and plated at 1×10^6 cells per well of a 12 well plate in complete media containing 10 ng/ml PMA (phorbol myristate acetate) to differentiate the cells. On day of assay, cells were washed with complete media, and compound was added to differentiated Thp-1 cells for 1 hour. Cells were washed again, and complete media containing 50 ng/ml LPS (lipopolysaccharide) was added. After 15 minutes, cells were washed once with PBS and lysed on ice with BioRad Bioplex lysis buffer. 20 μg total protein from lysates were loaded on gel and blots were probed for phosphorylation of the MK2 substrate Hsp27. Dose response inhibition of MK2 signaling in differentiated Thp-1 cells was used to determine the EC50 for compounds reported in Table A in the column entitled “MK2 EC50.”

Test [2] addresses p38a activated, mitogen-activated protein kinase-activated protein kinase 2 (MAPKAP-K2 or MK-2) enzyme (Homo sapiens (Human), UniProt P49137). The test can be described thus: MK2 Omnia continuous-read kinase assay for compound potency. Type of test: biochemical. The conditions noted are these: [MK-2]=0.4 nM, [ATP]=1.0 mM, [ST3-Sox]=10 μM. The method, boiled down: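 Continuous Omnia fluorescence read (λex360/λem485) every 71 s after starting with 0.4 nM MK-2, with 1.0 mM ATP (appKM 8-10 μM) and 10 μM ST3-Sox substrate.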

The target of test [3] is T1, MK2. The test can be described thus: MK2 modification assessment by whole protein mass spectrometry. The format is binding. Conditions: intact MK2, 60 min, 10-fold excess of compound to protein. The method, boiled down:
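MK2 treated with compound is analysed intact by MALDI-TOF after C4 cleanup in sinapinic acid matrix. Percent modification is the centroid mass shift against control MK2 divided by compound mass.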

Sequence of p38a activated, mitogen-activated protein kinase-activated protein kinase 2 (MAPKAP-K2 or MK-2) enzyme (P49137 whole entry): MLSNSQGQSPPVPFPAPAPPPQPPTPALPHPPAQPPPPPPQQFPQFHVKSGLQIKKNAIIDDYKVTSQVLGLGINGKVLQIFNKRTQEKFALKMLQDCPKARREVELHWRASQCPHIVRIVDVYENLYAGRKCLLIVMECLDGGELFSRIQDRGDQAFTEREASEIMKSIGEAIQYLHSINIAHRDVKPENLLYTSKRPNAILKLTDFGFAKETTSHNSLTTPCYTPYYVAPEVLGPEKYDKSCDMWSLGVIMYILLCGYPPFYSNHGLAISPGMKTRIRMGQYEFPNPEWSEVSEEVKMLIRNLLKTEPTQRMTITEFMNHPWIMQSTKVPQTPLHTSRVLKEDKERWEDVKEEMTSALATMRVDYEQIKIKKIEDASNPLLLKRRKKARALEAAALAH
T1 sequence (P49137 whole entry): as above

`C=CC(=O)N1CC(C)(C)Oc2ccc(NC(=O)c3ccc4cc5n(c4c3)C3(CCC3)CNC5=O)cc21` [Compound V-51, N-(4-acryloyl-2,2-dimethyl-3,4-dihydro-2H-benzo[b][1,4]oxazin-6-yl)-1′-oxo-2′,3′-dihydro-1′H-spiro[cyclobutane-1,4′-pyrazino [1,2-a]indole]-7′-carboxamide]: the EC50 at MK2 [1] is 101 to 500 nM. Further, the IC50 in test [2] is under 100 nM. The “MK2 Mass Mod” value at MK2 [3] is on record as “E (mass modification of ≥70%)”.
For `C=CC(=O)Nc1cc(-c2cc3c(ccc4c5c([nH]c43)CCC5=O)cn2)ccc1Cl` [II-e-20, N-(2-chloro-5-(7-oxo-7,8,9,10-tetrahydrocyclopenta[4,5]pyrrolo[2,3-f]isoquinolin-2-yl)phenyl)acrylamide] the same measures were 101 to 500 nM, under 100 nM and “E (mass modification of ≥70%)”.
For `C=CC(=O)Nc1cc(-c2cc(-c3cc4c([nH]3)C3(CCCNC3)CNC4=O)ccn2)ccc1OCCOC` (stereo not drawn) [Compound I-3] the same measures were over 1000 nM, under 100 nM and “E (mass modification of ≥70%)”.
For `C=CC(=O)N1CCOc2ccc(-c3cc4c(cn3)CCc3c-4[nH]c4c3C(=O)NC3(CC3)C4)cc21` [II-12, 2′-(4-acryloyl-3,4-dihydro-2H-benzo[b][1,4]oxazin-6-yl)-5′,6′,10′,11′-tetrahydrospiro[cyclopropane-1,9′-pyrido[3′,4′:4,5]pyrrolo[2,3-f]isoquinolin]-7′(8′H)-one], the EC50 on MK2 [1] was in the range of 501 to 999 nM. Moreover, the IC50 in test [2] is under 100 nM. In addition, at MK2 [3], the “MK2 Mass Mod” value is on record as “E (mass modification of ≥70%)”.
On to `C=CC(=O)Nc1cc(-c2ncc3c(n2)-c2[nH]c4c(c2CC3)C(=O)NCC4)ccc1OCCOC` [II-15, N-(2-(2-methoxyethoxy)-5-(7-oxo-6,7,8,9,10,11-hexahydro-5H-pyrido[3′,4′:4,5]pyrrolo[3,2-h]quinazolin-2-yl)phenyl)acrylamide], for which the EC50 at MK2 [1] is under 100 nM. Moreover, the 50% inhibitory concentration (IC50) in test [2] was under 100 nM. In addition, the “MK2 Mass Mod” value at MK2 [3] was “E (mass modification of ≥70%)”.
As for `C=CC(=O)N1CCCC(NC(=O)c2ccc3sc4c(c3c2)NC[C@@H](C)NC4=O)C1` (stereo partly drawn) [III-51, (3R)—N-(1-acryloylpiperidin-3-yl)-3-methyl-5-oxo-2,3,4,5-tetrahydro-1H-benzo[4,5]thieno[3,2-e][1,4]diazepine-9-carboxamide], the EC50 on MK2 [1] is under 100 nM. For the same molecule, the 50% inhibitory concentration (IC50) in test [2] was under 100 nM. Moreover, at MK2 [3], the “MK2 Mass Mod” value is recorded as “E (mass modification of ≥70%)”.
In the case of `C=CC(=O)Nc1cc(-c2cc3c(cn2)CCc2c-3[nH]c3c2C(=O)NCC3)cnc1OC` [II-4, N-(2-methoxy-5-(7-oxo-6,7,8,9,10,11-hexahydro-5H-pyrido[3′,4′:4,5]pyrrolo[2,3-f]isoquinolin-2-yl)pyridin-3-yl)acrylamide], on MK2 [1], the EC50 is under 100 nM. The half-maximal inhibitory concentration (IC50) in test [2] was under 100 nM. The “MK2 Mass Mod” value at MK2 [3] is given as “E (mass modification of ≥70%)”.
Take `C=CC(=O)Nc1cc(-c2cc3c(cn2)CCc2c-3[nH]c3c2C(=O)NCC3)ccc1F` [II-3, N-(2-fluoro-5-(7-oxo-6,7,8,9,10,11-hexahydro-5H-pyrido[3′,4′:4,5]pyrrolo[2,3-f]isoquinolin-2-yl)phenyl)acrylamide]: the EC50 at MK2 [1] was under 100 nM. For the same molecule, the IC50 in test [2] was under 100 nM. Further, the “MK2 Mass Mod” value at MK2 [3] was “F (mass modification of 31-69%)”.
Take `C=CC(=O)Nc1ccccc1C(=O)Nc1cc(-c2cc3c([nH]2)C2(CCCNC2)CNC3=O)ccn1` (racemic) [Compound I-4, 2-acrylamido-N-(4-(4′-oxo-1′,4′,5′,6′-tetrahydrospiro[piperidine-3,7′-pyrrolo[3,2-c]pyridin]-2′-yl)pyridin-2-yl)benzamide]: the EC50 on MK2 [1] was over 1000 nM. Also, the IC50 in test [2] was under 100 nM. Besides, the “MK2 Mass Mod” value on MK2 [3] was “E (mass modification of ≥70%)”.
With `C=CC(=O)Nc1cc(-c2ccc3c(ccc4sc5c(c43)NC[C@@H](C)NC5=O)n2)ccc1Cl` [III-54, (R)—N-(2-chloro-5-(10-methyl-8-oxo-9,10,11,12-tetrahydro-8H-[1,4]diazepino[5′,6′:4,5]thieno[3,2-f]quinolin-3-yl)phenyl)acrylamide], at MK2 [1], the EC50 fell in the range of 101 to 500 nM. Further, in test [2], the IC50 is under 100 nM. For the same molecule, the “MK2 Mass Mod” value at MK2 [3] was “E (mass modification of ≥70%)”.
For `C=CC(=O)Nc1cc(-c2cc3c(cn2)CCc2c-3[nH]c3c2C(=O)NCC3)ccc1N1CCN(C)CC1` [II-1, N-(2-(4-methylpiperazin-1-yl)-5-(7-oxo-6,7,8,9,10,11-hexahydro-5H-pyrido[3′,4′:4,5]pyrrolo[2,3-f]isoquinolin-2-yl)phenyl)acrylamide] the same measures were under 100 nM, under 100 nM and “E (mass modification of ≥70%)”.
For `C=CC(=O)Nc1cc(-c2ccc3c(ccc4sc5c(c43)NC[C@@H](C)NC5=O)n2)cnc1C` [III-1, (R)—N-(2-methyl-5-(10-methyl-8-oxo-9,10,11,12-tetrahydro-8H-[1,4]diazepino[5′,6′:4,5]thieno[3,2-f]quinolin-3-yl)pyridin-3-yl)acrylamide], on MK2 [1], the EC50 is under 100 nM. In test [2], the IC50 is under 100 nM. In addition, at MK2 [3], the “MK2 Mass Mod” value was “E (mass modification of ≥70%)”.
As for `C=CC(=O)N1CCC[C@@H](NC(=O)c2ccc3sc4c(c3c2)NC[C@@H](C)NC4=O)C1` [III-42], the EC50 on MK2 [1] was over 1000 nM. The half-inhibitory concentration (IC50) in test [2] is under 100 nM. For the same molecule, the “MK2 Mass Mod” value on MK2 [3] was “E (mass modification of ≥70%)”.
For `C=CC(=O)Nc1cc(-c2ncc3c(n2)-c2[nH]c4c(c2CC3)C(=O)NCC4)cnc1OCCOC` [II-13, N-(2-(2-methoxyethoxy)-5-(7-oxo-6,7,8,9,10,11-hexahydro-5H-pyrido[3′,4′:4,5]pyrrolo[3,2-h]quinazolin-2-yl)pyridin-3-yl)acrylamide] the same measures were 101 to 500 nM, under 100 nM and “E (mass modification of ≥70%)”.
For `C=CC(=O)Nc1cc(NC(=O)c2ccc3cc4n(c3c2)C2(CCC2)CNC4=O)ccc1F` [Compound V-54, N-(3-acrylamido-4-fluorophenyl)-1′-oxo-2′,3′-dihydro-1′H-spiro[cyclobutane-1,4′-pyrazino[1,2-a]indole]-7′-carboxamide] the same measures were 101 to 500 nM, 101 to 500 nM and “E (mass modification of ≥70%)”.
For `C=CC(=O)Nc1cc(-c2cc3c(cn2)CCc2c-3[nH]c3c2C(=O)NC2(CC2)C3)ccc1F` [II-6, N-(2-fluoro-5-(7′-oxo-5′,6′,7′,8′,10′,11′-hexahydrospiro[cyclopropane-1,9′-pyrido[3′,4′:4,5]pyrrolo[2,3-f]isoquinolin]-2′-yl)phenyl)acrylamide] the same measures were under 100 nM, under 100 nM and “E (mass modification of ≥70%)”.
For `C=CC(=O)N1CCOc2ccc(NC(=O)c3ccc4cc5n(c4c3)CCNC5=O)cc21` [Compound V-6, N-(4-acryloyl-3,4-dihydro-2H-benzo[b][1,4]oxazin-6-yl)-1-oxo-1,2,3,4-tetrahydropyrazino[1,2-a]indole-7-carboxamide], at MK2 [1], the EC50 is over 1000 nM. In addition, the IC50 in test [2] is under 100 nM. Further, the “MK2 Mass Mod” value at MK2 [3] is “E (mass modification of ≥70%)”.
